# Assay results reported in patent publication US8252752B2 (priority 2000, dated 2012).
# “Also recorded” adds a separate entry of the source.
# Tests used:
# MPTP-lesioned mice = type: in vivo, C57BL/6 mice
# Experimental: Experimental mice were lesioned with MPTP (i.e., 40 mg/kg, ip twice, 1 month).
# METHODS: Rota-Rod performance measures the length of time each animal manages to maintain its balance on the rotating lucite rod. Prior to MPTP-esioning animals, the performance was conditioned in three training sessions. The general training and testing procedure was as follows: namely,
# Animals were placed on a stationary rod for 30 sec to accustom the behavior and establish familiarity with the environment. During this time if an animal fell, it was placed back on the rod; Next, animals were conditioned (or tested) at a constant speed of 5 rpm for 90 sec.;
# Any animal that failed a first test was re-tested two more times; Any animal that failed a third test at 5 rpm was removed from the experiment; Thirty-minutes (30 min) after the last 5 rpm trial, each animal was placed back on the rod the speed was increased to 10 rpm; The length of time that each animal was able to maintain balance on the rod was measured at the constant speed of 10 rpm, i.e., data collection.
# human DAT = human DAT (Homo sapiens, UniProt Q01959)
# Sequence of human DAT (Q01959 whole entry): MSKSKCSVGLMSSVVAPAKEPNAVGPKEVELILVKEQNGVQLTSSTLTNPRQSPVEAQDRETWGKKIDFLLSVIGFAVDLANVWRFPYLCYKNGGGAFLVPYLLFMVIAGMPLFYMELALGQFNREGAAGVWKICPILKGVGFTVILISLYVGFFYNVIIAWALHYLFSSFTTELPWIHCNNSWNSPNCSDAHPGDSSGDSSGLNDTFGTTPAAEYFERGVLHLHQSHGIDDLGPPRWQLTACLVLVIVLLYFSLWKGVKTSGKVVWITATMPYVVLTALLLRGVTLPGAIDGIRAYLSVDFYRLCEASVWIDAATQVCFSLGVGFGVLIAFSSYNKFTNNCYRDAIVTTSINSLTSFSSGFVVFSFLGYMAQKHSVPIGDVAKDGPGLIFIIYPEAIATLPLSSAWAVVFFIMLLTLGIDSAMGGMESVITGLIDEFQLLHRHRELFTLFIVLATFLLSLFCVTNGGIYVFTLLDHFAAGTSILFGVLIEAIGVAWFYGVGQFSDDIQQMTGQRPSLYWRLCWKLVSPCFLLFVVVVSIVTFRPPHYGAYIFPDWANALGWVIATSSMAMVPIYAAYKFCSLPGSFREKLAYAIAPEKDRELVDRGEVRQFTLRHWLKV
# Experimental: To obtain differing levels of DAT expression, cells were transiently transfected) with plasmids containing a DAT cDNA insert (hDAT), or alternatively, control irrelevant cDNA insert (Negative Control, NC). After 48-72 hrs. culture, dopamine transport was measured in the transiently transfected hDAT-cells by incubation for 5 hrs. in the presence of ^3H-labeled dopamine (Positive Control, PC).
# 6-OHDA-lesioned rats = tested on: 6-OHDA-lesioned rats
# Excerpt: The nigral dopamine depletion is induced by using unilateral injections of 6-OHDA directly into the nigrostriatal system (AP: −4.4 mm, ML: 1.1 mm, DV: 7.5 mm, AP: −4.0 mm, ML: 0.8 mm, DV: 7.8 mm).
# METHODS for STUDY #2: The Rota-Count 8 unit is an eight channel rotational meter. The system utilizes a digital rotary encoder and each encoder is mounted in a small bowl with a cable attachment; thereby, rotations of rats are automatically recorded. 6-OHDA in 0.9% NaCl at a concentration of 0.2% (w/v)-8 μl injected into the nigrostriatum. To control for injection failures in the injections, only 6-OHDA-lesioned rats that rotated more than 5 cycles/min at 7 days post-injection were selected for experimental use.
# Nurr1 deficient mice = tested on: Nurr1 deficient mice
# Experimental: Rota rod performance measurements were made on a weekly basis during an 8 week treatment period.
# MATERIALS AND METHODS: RotaRod performance measurements (time that balance was maintained on the rod) were performed (as in Study #1), each week during 8 weeks of treatment.
# [1] = tested on: Tyrosine hydroxylase (TH); details: 20 mg/kg for two months vs NaCl
Molecule,"reduction of Rota-Rod mean time (MPTP-lesioned mice; after lesioning, 40 mg/kg ip twice)","competition of 3H-dopamine uptake (human DAT; hDAT-transfected cells, 5 hrs. incubation)",transportability at DAT (human DAT; summary of EXAMPLE 12),"Rota-Rod performance times relative to NaCl-treated controls (MPTP-lesioned mice; mouse, in vivo)","onset of significant improvement in Rota-rod performance times (MPTP-lesioned mice; mouse, in vivo)","locomotor activity after two months of treatment (MPTP-lesioned mice; mouse, in vivo, ip, 20 mg/kg)","apomorphine-induced rotation (6-OHDA-lesioned rats; 20 mg/kg, 4 weeks, p<0.05)",agonist effects (rotation triggered by the compound itself) (6-OHDA-lesioned rats; 80 mg/kg or 200 mg/kg),"stability of Rota Rod performance during treatment (Nurr1 deficient mice; 20 mg/kg twice daily, 8 weeks)","improvement of Rota Rod performance relative to saline treated controls (Nurr1 deficient mice; 20 mg/kg twice daily, within two weeks of treatment)","Rota-Rod time compared with pretreatment performance times (Nurr1 deficient mice; 20 mg/kg, p<0.05)",time to return of Rota-Rod performance to pre-treatment values after cessation of treatment (Nurr1 deficient mice; after 8 weeks of treatment) [weeks],"Rota-Rod performance after cessation of treatment (washout) (Nurr1 deficient mice; after 8 weeks of treatment, p<0.05)",amount of TH per neuron [1],"increase in number of neurons staining positively for TH ([1]; not statistically significant, n=6)"
"CN1CC=C(c2ccccc2)CC1 [MPTP, 1,2,3,6-methyl-phenyl-tetrahydropyridine, reference compound]",over 65%,–,–,–,–,–,–,–,–,–,–,–,–,–,–
Dopamine gluconamide [Compound #1],–,Competition of ^3H-dopamine uptake was observed,transportable at DAT,8-9 fold,about the third week of treatment; also recorded: about the second week,recovered locomotor activity,significantly decreased apomorphine-induced rotation,did not trigger visible effects,remained stable during the course of the 8-week treatment study,about 2 fold,significant increase of Rota-Rod time within two weeks of treatment,≤ 2,degraded significantly within one week,qualitatively much higher,20-30%
